Laboratory results reported in patent publication US8478375B2, “Sensor for detection of carbohydrate” (Medtronic Minimed, Inc., priority 2004, dated 2013).

Biological target: MBL (Homo sapiens, UniProt P11226)
Assay: Affinity of monomeric saccharides for MBL
Format: binding

Chain of MBL (P11226 21-248): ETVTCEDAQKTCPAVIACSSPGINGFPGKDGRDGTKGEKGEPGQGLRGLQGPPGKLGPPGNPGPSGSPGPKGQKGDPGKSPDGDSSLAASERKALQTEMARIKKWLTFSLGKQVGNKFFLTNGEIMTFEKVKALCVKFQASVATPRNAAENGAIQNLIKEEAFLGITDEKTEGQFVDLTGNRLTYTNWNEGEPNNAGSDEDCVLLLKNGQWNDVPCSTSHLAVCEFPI

SMILES	affinity for MBL
CC(=O)N[C@H]1C(O)O[C@H](CO)[C@@H](O)[C@@H]1O (some centres unmarked) [N-acetyl-glucosamine]	high affinity
O=C[C@H](O)[C@@H](O)[C@@H](O)[C@H](O)CO [galactose]	very low affinity
